According to patent EP4167996B1, “METAMIZOLE DERIVATIVES FOR THE PREVENTION AND TREATMENT OF PULMONARY HYPERTENSION” (Preißner, Robert, priority 2020, dated 2021):

Test system: isoliert-perfundierte Mauslungen
Assay: Hypoxic pulmonary vasoconstriction in the isolated perfused mouse lung (IPL)
Parameters: species or system C57BU6J Mäuse
Settings: control ΔPAP ca. 4 cmH2O, P<0,005
Protocol: Hypoxisch pulmonale Vasokonstriktion an der isoliert-perfundierten Mauslunqe (IPL)
Für die IPL wurden 10-12 Wochen alte C57BU6J Mäuse verwendet. Zu Beginn wurden die Mäuse anästhesiert (Ketamin 100mg/kg Körpergewicht (KG); Xylazin 20mg/kg KG) und mittels zervikaler Dislokation getötet. Im Anschluss wurde eine Tracheotomie durchgeführt und die Lunge in situ positiv mit normoxischem (20% O2; 5% CO2; 75% N2) Gas ventiliert (Tidalvolumen: 100 µl; Atemzüge pro Minute: Körpergewicht x 10). Anschließend wurde der Bauchraum eröffnet, das Diaphragma durchtrennt und Heparin (100 U) in den rechten Ventrikel injiziert. Nach der Eröffnung des Thorax mittels Sternotomie wurde sowohl die Pulmonalarterie als auch der linke Ventrikel kanüliert und die Lunge mit auf 37°C temperierter, gepufferter Salzlösung nach Hanks, angereichert mit Ca^2+, Mg^2+ und 10% FBS, perfundiert. Je nach Versuchsgruppe wurde das Perfusat zusätzlich mit einer Gewichts-entsprechenden Menge an Metamizol, 4-Aminoantipyrin oder 4-Methylamioantipyrin versetzt. Sobald sich der pulmonalarterielle Druck (PAP) stabilisiert hatte, wurden die Basalwerte aufgezeichnet und anschließend die Mauslunge mit hypoxischem Gas (1% O2; 5% CO2; 94% N2) ventiliert. Veränderungen des PAP wurden mithilfe eines Drucksensors P75 (Havartus apparatus) detektiert, und geben das Ausmaß der hypoxischen Vasokonstriktion der Lunge wieder.

## CNc1c(C)n(C)n(-c2ccccc2)c1=O [4-Methylaminoantipyrin]
50-200 mg/kg KG in perfusate, hypoxic gas (1% O2; 5% CO2; 94% N2), Fig. 2
  Reduktion des ΔPAP in Abhängigkeit der Konzentration: Dosis-abhängigen Reduktion des ΔPAP
Mus musculus, 200 mg/kg KG in perfusate, ventilation switched from normoxic to hypoxic gas (1% O2; 5% CO2; 94% N2), Fig. 1, read-out: Reduktion des ΔPAP nach Umschalten auf Hypoxie
  inhibition at 200 mg/kg: 70%
